Measurements published in patent publication US6413951B2, “20-fluoro-17(20)-vinyl steroids” (Aventis Pharmaceuticals, Inc., priority 2000, dated 2002).

What was measured:
[1] = system: cynomologous monkey C17,20 lyase; experiment: In vitro C17,20 lyase assay (testicular microsomes); assay type: biochemical, cynomolgus monkey; set-up: unit of the concentration uncertain
Experimental: In vitro C17,20 lyase assay: Compounds were tested for inhibition of cynomologous monkey C17,20 lyase in vitro using microsomal preparations of the enzyme from testicular tissue. Testes were removed from anesthetized animals and flash frozen in liquid nitrogen. Microsomes were isolated as described in Schatzman et al., Anal. Biochem., 175, 219-226 (1988). The compound to be tested was dissolved in DMSO and diluted in 0.05M potassium phosphate buffer, pH 7.4, to give the desired concentrations of test compound, in an amount which contributes 0.1% v/v DMSO to the total assay volume. […] Control assays contained all components, including DMSO, but no test compound. All assays were performed in duplicate. […] The complete assay was incubated at 34° C. for 6 minutes. […] Radioactivity in the steriod peaks was measured using a Radiometric Model HS or Model A515 Flo-One detector. The enzyme activity for each assay was calculated from the conversion of substrate to products, and. the results expressed as percent inhibition of control.

[2] = system: cynomolgus monkey 5α-reductase; conditions: read-out: Km values of testosterone, multiple experiments
Experimental: (§1) In vitro 5α-reductase assay: The activity of the present compounds as inhibitors of steroid 5α-reductase was determined using microsomal preparations of the 5α-reductase enzyme from human or laboratory animal prostate tissue. Specifically, prostate tissue was rapidly frozen in liquid nitrogen following removal from the human patient or from a cynomologus monkey (Macaca fascicularis) and subsequently stored at −80° C. The tissue was thawed, minced, and then homogenized in 5 volumes of 0.05M potassium phosphate buffer, pH 7.0, using a Tekmar homogenizer with 3×5 second bursts, followed by 10 strokes in a Dounce homogenizer. The homogenate was sonified in three pulses of 5 seconds each at 50% of maximum power. The homogenate was subjected to differential centrifugation with each supernatant successively centrifuged at 600×G and […] in a Beckman J21 centrifuge followed by 120,000×G in a Beckman Model L5-75 ultracentrifuge. The final pellet, containing the microsomal fraction, was reserved and resuspended in 0.05M potassium phosphate buffer, pH 7.0, containing 25% (w/v) glycerol equal to 1 mL per 3 g wet tissue. The suspension was divided into aliquots, flash frozen using dry ice in methanol, and stored at −80° C. […] Protein concentration was determined by the BioRad dye binding method (BioRad, Richmond, Calif., USA). […]

rat 5α-reductase = conditions: read-out: Km values of testosterone, multiple experiments
human 5α-reductase = biological target: T1, human 5α-reductase (Homo sapiens, UniProt P31213); experiment: In vitro 5α-reductase assay (prostate microsomes), human; assay type: biochemical; conditions: read-out: Km values of testosterone, multiple experiments
T1 construct: microsomal preparations of the 5α-reductase enzyme from human or laboratory animal prostate tissue; from tissue; host or cells: human prostate, microsomes
T1 sequence (P31213 1-254): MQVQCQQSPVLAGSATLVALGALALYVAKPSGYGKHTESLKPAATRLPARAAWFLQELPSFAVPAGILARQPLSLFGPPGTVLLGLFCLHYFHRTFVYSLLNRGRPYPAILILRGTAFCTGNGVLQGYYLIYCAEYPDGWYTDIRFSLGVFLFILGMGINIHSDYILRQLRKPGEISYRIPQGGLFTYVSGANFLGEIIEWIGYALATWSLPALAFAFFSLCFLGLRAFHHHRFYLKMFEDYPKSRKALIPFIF
Experimental: as §1

[3] = Conc. 1 (unit uncertain), Preinc. 0 min
[4] = Conc. 1 (unit uncertain), Preinc. 40 min
[5] = Conc. 10 (unit uncertain), Preinc. 0 min
[6] = Conc. 10 (unit uncertain), Preinc. 40 min

SMILES	% Inhibition [1, 3]	% Inhibition [1, 4]	% Inhibition [1, 5]	% Inhibition [1, 6]	melting point	Km [2]	Km (rat 5α-reductase)	Km (human 5α-reductase)
C[C@]12CC[C@H](O)CC1=CC[C@@H]1[C@@H]2CC[C@]2(C)/C(=C(/F)CO)CC[C@@H]12 [E CH2OH, (17E)-20-Fluoropregna-5,17(20)-diene-3β,21-diol]	63%	61%	85%	87%	214 to 216 °C			
C/C(F)=C1/CC[C@H]2[C@@H]3CC=C4C[C@@H](O)CC[C@]4(C)[C@H]3CC[C@]12C [E CH3, (17E)-20-fluoropregna-5,17(20)-dien-3β-ol]	54%	60%	88%	94%	129 to 133 °C			
C[C@]12CC[C@H](O)CC1=CC[C@@H]1[C@@H]2CC[C@]2(C)/C(=C(\F)CO)CC[C@@H]12 [Z CH2OH, (17Z)-20-Fluoropregna-5,17(20)-diene-3β,21-diol]	96%	94%	100%	100%	198 to 203 °C			
C/C(F)=C1\CC[C@H]2[C@@H]3CC=C4C[C@@H](O)CC[C@]4(C)[C@H]3CC[C@]12C [Z CH3, (17Z)-20-Fluoropregna-5,17(20)-dien-3β-ol]	49%	72%	78%	94%	153 to 155 °C			
C[C@]12CC[C@H]3[C@@H](CCC4=CC(=O)CC[C@@]43C)[C@@H]1CC[C@@H]2O [testosterone, 17β-hydroxyandrost-4-en-3-one]						0.025 to 0.091 µM	0.74 to 0.9 µM	0.125 to 0.273 µM
